These results are taken from patent publication US8288424B2, “Substituted tetrahydroimidazopyridine compounds and the use thereof in the treatment of pain and other conditions” (Gruenenthal GmbH, priority 2008, dated 2012).

The first test deals with T1, KCNQ2/3 channels (Homo sapiens, UniProt O43525+O43526).
T1 construct: expressed in transfected cells; host or cells: CHO-K1
The experiment in a line: Fluorescence assay using a voltage-sensitive dye. The class given is cell-based. Conditions: 10 μmol test substance; CHO-K1 cells expressing KCNQ2/3 channels; agonistic activity; read-out: % Stimulation [10 μmol] Average. How it is done:
Fluorescence Assay Using a Voltage-Sensitive Dye
Human CHO-K1 cells expressing KCNQ2/3 channels are cultivated adherently at 37° C., 5% CO2 and 95% humidity in cell culture bottles (e.g. 80 cm^2 TC flasks, Nunc) with MEM Alpha Medium (1×, liquid, Invitrogen, #22571), 10% foetal calf serum (FCS) (Invitrogen, #10270-106, heat-inactivated) and the necessary selection antibiotics. Before being spread out for the measurements, the cells are washed with a 1×DPBS buffer without Ca^2+/Mg^2+ (e.g. Invitrogen, #14190-094) and detached from the bottom of the culture vessel by means of Accutase (PAA Laboratories, #L11-007) (incubation with Accutase for 15 min at 37° C.). The cell count then present is determined using a CASY™ cell counter (TCC model, Schärfe System) in order subsequently to apply 20,000 cells/well/100 μl of the described nutrient medium to 96-well measuring plates of the Corning™ CellBIND™ type (flat clear-bottom black polystyrene microplates, #3340). Incubation is then carried out for one hour at room temperature, without gassing or adjusting the humidity, followed by incubation for 24 hours at 37° C., 5% CO2 and 95% humidity.
The voltage-sensitive fluorescent dye from the Membrane Potential Assay Kit (Red bulk format part R8123 for FLIPR, Molecular Devices™) is prepared by dissolving the contents of a vessel of Membrane Potential Assay Kit Red Component A in 200 ml of extracellular buffer (ES buffer, 120 mM NaCl, 1 mM KCl, 10 mM HEPES, 2 mM CaCl2, 2 mM MgCl2, 10 mM glucose; pH 7.4). After removal of the nutrient medium, the cells are washed with 200 μl of ES buffer, then covered with a layer of 100 μl of the dye solution prepared above and incubated for 45 min at room temperature with exclusion of light.
The fluorescence measurements are carried out with a BMG Labtech FLUOstar™ or BMG Labtech POLARstar™ instrument (525 nm excitation, 560 nm emission, bottom-read mode). After incubation of the dye, 50 μl of the substances to be tested in the desired concentrations, or 50 μl of ES buffer for control purposes, are introduced into separate cavities of the measuring plate and incubated for 30 min at room temperature whilst being shielded from light. The fluorescence intensity of the dye is then measured for 5 min and the fluorescence value F1 of each well is thus determined at a given, constant time. 15 μl of a […] KCl solution ([…]) are then added to each well. The change in fluorescence is subsequently measured until all relevant measured values have been obtained (mainly 5-30 min). At a given time after KCl application, a fluorescence value F2 is determined, in this case at the time of the fluorescence peak.
For calculation, the fluorescence intensity F2 is compared with the fluorescence intensity F1, and the agonistic activity of the target compound on the potassium channel is determined therefrom. F2 and F1 are calculated as follows:
[formula] In order to determine whether a substance has an agonistic activity,
[formula] for example, can be compared with
[formula] of control cells.
[formula] is determined by adding to the reaction batch only the buffer solution instead of the substance to be tested, determining the value F1K of the fluorescence intensity, adding the potassium ions as described above and measuring a value F2K of the fluorescence intensity. Then F2K and F1K are calculated as follows:
[formula] A substance has an agonistic activity on the potassium channel when
[formula] is greater than
[formula] Independently of the comparison of
[formula] it is also possible to conclude that a target compound has an agonistic activity if an increase in
[formula] is to be observed as the dosage of the target compound increases. Calculations of EC50 and IC50 values are carried out with the aid of Prism 4 software (GraphPad Software™).
For `O=C(c1cn2c(n1)CCC(c1ccc(F)cc1)C2)N1CCC(Cc2ccccc2)CC1` (stereo not drawn) [Compound 41, (4-Benzylpiperidin-1-yl)(6-(4-fluorophenyl)-5,6,7,8-tetrahydroimidazo[1,2-a]pyridin-2-yl)methanone], the activation at 10 µM stood at 29.4%.

For `CCCCCNC(=O)c1cn2c(n1)CCC(c1cc(C)c(OC)c(C)c1)C2` (stereo not drawn) [Compound 15, 6-(4-Methoxy-3,5-dimethylphenyl)-N-pentyl-5,6,7,8-tetrahydroimidazo[1,2-a]pyridine-2-carboxamide], the activation at 10 µM was found to be 16.8%.

Consider `COc1cccc(C2CCc3nc(C(=O)N4CCC(Cc5ccccc5)CC4)cn3C2)c1` (stereo not drawn) [Compound 50, (4-Benzylpiperidin-1-yl)(6-(3-methoxyphenyl)-5,6,7,8-tetrahydroimidazo[1,2-a]pyridin-2-yl)methanone], for which the activation at 10 µM was determined as 25.7%.

For `CCc1ccc(C2CCc3nc(C(=O)NCCc4ccccc4)cn3C2)cc1` (stereo not drawn) [Compound 40, 6-(4-Ethylphenyl)-N-phenethyl-5,6,7,8-tetrahydroimidazo[1,2-a]pyridine-2-carboxamide], the activation at 10 µM turned out to be 16.6%.

Turning to `COc1ccc(C2CCc3nc(C(=O)N4CCCC4)cn3C2)c(OC)c1` (stereo not drawn) [Compound 33, (6-(2,4-Dimethoxyphenyl)-5,6,7,8-tetrahydroimidazo[1,2-a]pyridin-2-yl)(pyrrolidin-1-yl)methanone], the activation at 10 µM turned out to be 24.5%.

On to `Cc1cc(C2CCc3nc(C(=O)N4CCN(Cc5ccccc5)CC4)cn3C2)ccc1F` (stereo not drawn) [Compound 80, (4-Benzylpiperazin-1-yl)(6-(4-fluoro-3-methylphenyl)-5,6,7,8-tetrahydroimidazo[1,2-a]pyridin-2-yl)methanone], for which the activation at 10 µM is 33.1%.

`Cc1cc(C2CCc3nc(C(=O)N4CC5(C)CC4CC(C)(C)C5)cn3C2)ccc1F` (stereo not drawn) [Compound 84, (6-(4-Fluoro-3-methylphenyl)-5,6,7,8-tetrahydroimidazo[1,2-a]pyridin-2-yl)(1,3,3-trimethyl-6-azabicyclo[3.2.1]octan-6-yl)methanone]: the activation at 10 µM amounted to 37.9%.

In the case of `COc1ccc(OC)c(C2CCc3nc(C(=O)N4CC5(C)CC4CC(C)(C)C5)cn3C2)c1` (stereo not drawn) [Compound 12, (6-(2,5-Dimethoxyphenyl)-5,6,7,8-tetrahydroimidazo[1,2-a]pyridin-2-yl)(1,3,3-trimethyl-6-azabicyclo[3.2.1]octan-6-yl)methanone], the activation at 10 µM is 51.8%.

In the case of `CCC(C)NC(=O)c1cn2c(n1)CCC(c1ccc(Oc3ccccc3)cc1)C2` (stereo not drawn) [Compound 18, N-sec-Butyl-6-(4-phenoxyphenyl)-5,6,7,8-tetrahydroimidazo[1,2-a]pyridine-2-carboxamide], the activation at 10 µM came to 18.6%.

As to `Cc1cc(C)cc(C(C)NC(=O)c2cn3c(n2)CCC(c2ccc(F)c(C)c2)C3)c1` (stereo not drawn) [Compound 78, N-(1-(3,5-Dimethylphenyl)ethyl)-6-(4-fluoro-3-methylphenyl)-5,6,7,8-tetrahydroimidazo[1,2-a]pyridine-2-carboxamide], the activation at 10 µM was 29.7%.

As to `COc1ccccc1N1CCN(C(=O)c2cn3c(n2)CCC(c2cc(C)c(OC)c(C)c2)C3)CC1` (stereo not drawn) [Compound 10, (6-(4-Methoxy-3,5-dimethylphenyl)-5,6,7,8-tetrahydroimidazo[1,2-a]pyridin-2-yl)(4-(2-methoxyphenyl)piperazin-1-yl)methanone], the activation at 10 µM turned out to be 15.7%.

With `Cc1ccc(C2CCc3nc(C(=O)N4CCC(Cc5ccccc5)CC4)cn3C2)cc1` (stereo not drawn) [Compound 73], the activation at 10 µM came out at 88.8%.

As for `Cc1cc(C2CCc3nc(C(=O)NCCC4CCCCC4)cn3C2)ccc1F` (stereo not drawn) [Compound 88, N-(2-Cyclohexylethyl)-6-(4-fluoro-3-methylphenyl)-5,6,7,8-tetrahydroimidazo[1,2-a]pyridine-2-carboxamide], the activation at 10 µM worked out at 47.9%.

`Cc1cc(C2CCc3nc(C(=O)N(C)C(C)CCc4cccc(C(F)(F)F)c4)cn3C2)ccc1F` (stereo not drawn) [Compound 87, 6-(4-Fluoro-3-methylphenyl)-N-methyl-N-(4-(3-(trifluoromethyl)phenyl)butan-2-yl)-5,6,7,8-tetrahydroimidazo[1,2-a]pyridine-2-carboxamide]: the activation at 10 µM came to 48.4%.

For the molecule `COc1ccc(C2CCc3nc(C(=O)N4CCN(c5cccc(C(F)(F)F)c5)CC4)cn3C2)cc1` (stereo not drawn) [Compound 69, (6-(4-Methoxyphenyl)-5,6,7,8-tetrahydroimidazo[1,2-a]pyridin-2-yl)(4-(3-(trifluoromethyl)phenyl)piperazin-1-yl)methanone], the activation at 10 µM was found to be 30.1%.

Consider `O=C(c1cn2c(n1)CCC(c1ccc(OCc3ccccc3)cc1)C2)N1CCN(c2cccc(C(F)(F)F)c2)CC1` (stereo not drawn) [Compound 82, (6-(4-(Benzyloxy)phenyl)-5,6,7,8-tetrahydroimidazo[1,2-a]pyridin-2-yl)(4-(3-(trifluoromethyl)phenyl)piperazin-1-yl)methanone], for which the activation at 10 µM turned out to be 32.7%.

Staying with this test, now noted: CHO-K1 cells expressing KCNQ2/3 channels; agonistic activity.
`COc1cccc(C2CCc3nc(C(=O)NC(C)CCc4ccccc4)cn3C2)c1` (stereo not drawn) [Compound 60, 6-(3-Methoxyphenyl)-N-(4-phenylbutan-2-yl)-5,6,7,8-tetrahydroimidazo[1,2-a]pyridine-2-carboxamide] gave an EC50 of 6.4 µM.

With `CCCCNC(=O)c1cn2c(n1)CCC(c1ccc(Oc3ccccc3)cc1)C2` (stereo not drawn) [Compound 19, N-Butyl-6-(4-phenoxyphenyl)-5,6,7,8-tetrahydroimidazo[1,2-a]pyridine-2-carboxamide], it took 6.21 µM to reach a half-maximal effect (EC50).

The molecule `CCOc1ccccc1N1CCN(C(=O)c2cn3c(n2)CCC(c2cccc(C)c2)C3)CC1` (stereo not drawn) [Compound 45, (4-(2-Ethoxyphenyl)piperazin-1-yl)(6-m-tolyl-5,6,7,8-tetrahydroimidazo[1,2-a]pyridin-2-yl)methanone] yielded a concentration for a half-maximal effect (EC50) of 7.98 µM.

In the case of `Cc1cc(C2CCc3nc(C(=O)N4CCN(c5cccc(C(F)(F)F)c5)CC4)cn3C2)ccc1F` (stereo not drawn) [Compound 58, (6-(4-Fluoro-3-methylphenyl)-5,6,7,8-tetrahydroimidazo[1,2-a]pyridin-2-yl)(4-(3-(trifluoromethyl)phenyl)piperazin-1-yl)methanone], the EC50 was determined as 4.46 µM.

`O=C(NCc1cccnc1)c1cn2c(n1)CCC(c1ccc(Oc3ccccc3)cc1)C2` (stereo not drawn) [Compound 24, 6-(4-Phenoxyphenyl)-N-(pyridin-3-ylmethyl)-5,6,7,8-tetrahydroimidazo[1,2-a]pyridine-2-carboxamide] yielded an EC50 of 6.14 µM.

As for `O=C(c1cn2c(n1)CCC(c1ccc(Oc3ccccc3)cc1)C2)N1CCCC1` (stereo not drawn) [Compound 25, (6-(4-Phenoxyphenyl)-5,6,7,8-tetrahydroimidazo[1,2-a]pyridin-2-yl)(pyrrolidin-1-yl)methanone], the EC50 was 2.33 µM.

Turning to `COc1c(C)cc(C2CCc3nc(C(=O)N4CCN(c5ccccc5F)CC4)cn3C2)cc1C` (stereo not drawn) [Compound 6, (4-(2-Fluorophenyl)piperazin-1-yl)(6-(4-methoxy-3,5-dimethylphenyl)-5,6,7,8-tetrahydroimidazo[1,2-a]pyridin-2-yl)methanone], the EC50 came out at 7.4 µM.

The molecule `Cc1cc(C)cc(C2CCc3nc(C(=O)N4CCN(c5cccc(C(F)(F)F)c5)CC4)cn3C2)c1` (stereo not drawn) [Compound 77, (6-(3,5-Dimethylphenyl)-5,6,7,8-tetrahydroimidazo[1,2-a]pyridin-2-yl)(4-(3-(trifluoromethyl)phenyl)piperazin-1-yl)methanone] returned an EC50 of 0.08 µM.

The term EC50 denotes the midpoint of the concentration-response curve. Low values mean a more potent agent, high ones a less potent agent.
